“Also recorded” adds a separate entry of the source. Like-named read-outs stand apart in the source and are kept apart here.

Series [1] in a line: Ground-state and excited-state acidities of aromatic-amine-based photoacids (Table 1). The conditions noted are these: pKa* pseudo minus pKa. An excerpt:
Because the Henderson-Hasselbalch equation is derived for proton-transfer reactions at thermal and chemical equilibrium, it is agnostic to whether the ESPT acceptor species are H2O(l) or OH^−(aq), but it does require that the system has reached excited-state quasi-equilibrium.
Observed rate constants can be determined for excited-state proton transfer from weak photoacids to a series of proton-accepting quenchers.

For series [2] the following is noted: cited from earlier work; for pKa* pseudo: excited state, photoluminescence titration, Henderson-Hasselbalch analysis; for pKa: ground state.
Series [3] is described as follows: Acid-base titration of aqueous photoacid with absorption and steady-state photoluminescence detection (Henderson-Hasselbalch / Stern-Volmer fits, OH− as quencher). The settings on record: for predicted pK*a pseudo (Equation 5): from bimolecular rate constant and excited-state lifetime; for bimolecular rate constant k+q,ss,OH−: steady-state data, forward direction of Reaction 1 with B=OH−(aq). The source says: FIGS. 2A through 2C illustrate acid-base titration of an aqueous solution of NS—NH2 photoacid with absorption and photoluminescence detection in accordance with an embodiment.
where aOH− is the activity of OH^−(aq), K*b pseudo is an erroneous observed equilibrium constant for base dissociation and KSV,OH− is the Stern-Volmer quenching constant, which is strictly dimensionless but reported here in units of M^−1 to be consistent with its typical usage. Unlike the Henderson-Hasselbalch equation, the Stern-Volmer equation is also applicable to non-equilibrium processes.
and KSV,OH−=k+q,OH−τo,PAH*, where τ is the excited-state lifetime (s) of NS—NH2* in the absence (τo,PAH*) or presence (τPAH*) of OH^− quencher and k+q,OH− is the bimolecular rate constant (M^−1 s^−1) for quenching of NS—NH2* by OH^− (forward direction of Reaction 1 with B=OH^−(aq)).
Several embodiments use the steady-state ultraviolet-visible electronic absorption and photoluminescence spectroscopy for characterization. Equal amounts of aromatic amine photoacids are portioned into five separate 100 mL volumetric flasks. For the non-proton-accepting quencher experiments, the five flasks are filled to the volumetric marker with aqueous solutions of 1 M HCl, 1 M KOH, 2 M KOH, 3 M KOH, and 4 M KOH. The aqueous 1 M KOH solution is titrated with the aqueous 1 M HCl solution to reach the desired pH values from 14 to 6, and the H^+ activities are measured using a pH meter (pH/Ion 510). […] Electronic absorption spectra and photoluminescence spectra are acquired using absorbance and fluorescence spectrometer(s), using a square-bottom quartz cuvette (1 cm path length) at room temperature. Electronic absorption spectra are baselined on a spectrum of deionized water and were corrected for scattering of light. Photoluminescence spectra are recorded by exciting with 310 nm light, slit widths for the excitation and emission monochromators were set to 5 nm, and the PMT detector voltage is set to 600 V. Photoluminescence spectra are corrected for changes in solution refractive index, inner filter effects and the wavelength-dependent correction factor of the fluorimeter. For experiments that use non-OH^− proton-accepting quenchers, equal amounts of the quencher are added to the dry volumetric flask intended to form the acidic and basic aqueous photoacid solutions, to prevent changes in total quencher concentration during the titration, and titrations are performed similarly to those in the absence of added proton-accepting quenchers. Although the total quencher concentration is kept constant throughout the titration, the activity of the deprotonated quencher species varied as a function of solution pH according to Equation 3. Ionic strength is matched at the most alkaline pH values; however, it is experimentally difficult to maintain the same ionic strength throughout the titration. Normalized photoluminescence intensities as a function of solution pH are obtained by dividing the corrected photoluminescence intensities at the wavelength of maximum photoluminescence to the maximum corrected photoluminescence intensity at the same wavelength.

A short description of series [4]: Stability of dye fluorescence near an operating gas diffusion electrode.

Consider `c1ccc2c(c1)[nH]c1ccccc12` [carbazole], for which, in series [1], the ΔpKa pseudo is given as −9.2. Also, the “pKa* pseudo” value in series [2] was 11.9.

Take `Nc1ccc2c(c1)Cc1cc(N)ccc1-2` [2,7-diaminofluorene]: in series [1], the ΔpKa pseudo was under −2.1. In series [2], the “pKa* pseudo” value is 13.9 and the pKa (in general, the pH at which an ionisable group is half protonated) is on record as over 16.

`O=C(O)c1cc2ccccc2[nH]1` [indole-2-carboxylic acid]: the ΔpKa pseudo in series [1] is −4.2. For the same molecule, in series [2], the “pKa* pseudo” value is 12.9 and the pKa was 17.1.

Regarding `Nc1ccc(-c2ccccc2)cc1` [4-aminobiphenyl], in series [1], the ΔpKa pseudo was under −1.25. Besides, in series [2], the “pKa* pseudo” value is on record as 14.25 and the pKa is on record as over 15.5.

Turning to `Nc1ccc(Nc2ccccc2)cc1` [4-aminodiphenylamine], the ΔpKa pseudo in series [1] is recorded as under −4.8. Further, in series [2], the “pKa* pseudo” value is 11.2 and the pKa is recorded as over 16.0.

With `CNc1ccccc1-c1nc2ccccc2n1C` [2-(2′-N-methyl-aminophenyl)-N-methylbenzimidazole], the “pKa* pseudo” value in series [2] is listed as 12.2.

`Nc1cnc2ccccc2c1` [3-aminoquinoline]: in series [2], the “pKa* pseudo” value is recorded as 12.1.

The molecule `Nc1cc2c3ccccc3ccc2c2ccccc12` [6-aminochrysene] registered a ΔpKa pseudo in series [1] of under −1.4. Also, in series [2], the “pKa* pseudo” value was 12.6 and the pKa was over 14.

In the case of `Nc1ccc2c(c1)Cc1ccccc1-2` [2-aminofluorene], in series [2], the “pKa* pseudo” value is listed as 13.0.

As to `Nc1ccc2[nH]ccc2c1` [5-aminoindole], the ΔpKa pseudo in series [1] is given as −2.1. Further, in series [2], the “pKa* pseudo” value is on record as 14 and the pKa is on record as 16.1.

`c1ccc(-c2cc(-c3ccccc3)[nH]n2)cc1` [3,5-diphenylpyrazole] returned a ΔpKa pseudo in series [1] of −0.3. For the same molecule, in series [2], the “pKa* pseudo” value is reported as 12.64 and the pKa is given as 12.94.

Regarding `NCCNc1cccc2c(S(=O)(=O)[O-])cccc12.[Na+]` [EDANS, 5-((2-aminoethyl)amino)naphthalene-1-sulfonic acid sodium salt], the pKa in series [3] (aqueous solution, pKa of the aliphatic primary amine, multi-quencher Stern-Volmer fit) was determined as 10.06 ± 0.02. Besides, the unimolecular rate constant result in series [3] (excited-state deprotonation by the aliphatic primary amine) is reported as “(0.95±0.01)×10^8 s^−1”. Further, the “KSV,NH2” value in series [3] (excited-state deprotonation by the aliphatic primary amine (intramolecular)) was 1.20 ± 0.02 M⁻¹. In series [3], the “predicted pK*a pseudo (Equation 5)” value was 12.53±0.06 and the “bimolecular rate constant k+q,ss,OH−” value is “(23±1)×10^8 M^−1 s^−1”. Also, the “KSV,ss,OH−” value in series [3] (steady-state photoluminescence, non-linear Stern-Volmer fit, OH−(aq) quencher) came out at 30 ± 1 M⁻¹.

For the molecule `O=C(O)c1cccc2[nH]ccc12` [indole-4-carboxylic acid], the ΔpKa pseudo in series [1] was −4.2. Moreover, in series [2], the “pKa* pseudo” value is listed as 12.2 and the pKa is 16.4.

In turn, `COc1ccc(N)cc1` [p-anisidine] came in with a ΔpKa pseudo in series [1] of under −2.7. In series [2], the “pKa* pseudo” value is on record as 13.3 and the pKa is over 16.

`Nc1ccccc1-c1ccccc1` [2-aminobiphenyl] displayed a ΔpKa pseudo in series [1] of under −2.9. Besides, in series [2], the “pKa* pseudo” value was 12.1 and the pKa is reported as over 15.0.

For `Nc1cc2ccccc2cc1C(=O)O` [2-amino-3-naphthoic acid], the ΔpKa pseudo in series [1] is on record as under 3.2. In series [2], the “pKa* pseudo” value is 12.8 and the pKa is over 16.

In series [1], `Nc1ccc2c(c1)C(=O)c1ccc(N)cc1C2=O` [2,6-diaminoanthraquinone] had a ΔpKa pseudo of under −1.4. For the same molecule, in series [2], the “pKa* pseudo” value is on record as 14.2 and the pKa is over 15.6.

Regarding `Nc1cc2ccccc2cc1N` [2,3-diaminonaphthalene], in series [1], the ΔpKa pseudo is recorded as under −3.1. Further, in series [2], the “pKa* pseudo” value is on record as 12.9 and the pKa is recorded as over 16.

The molecule `O=C(O)c1c[nH]c2ccccc12` [indole-3-carboxylic acid] yielded a ΔpKa pseudo in series [1] of −2.5. Besides, in series [2], the “pKa* pseudo” value is 13.1 and the pKa is recorded as 15.6.

Turning to `Nc1ccc(Oc2ccc(N)cc2)cc1` [bis(4-aminophenyl)ether], in series [2], the “pKa* pseudo” value is listed as 11.2.

Molecule `COc1n[nH]c2ccccc12` [3-methoxyindazole] yielded a ΔpKa pseudo in series [1] of −2.3. Moreover, in series [2], the “pKa* pseudo” value is 11.7 and the pKa is recorded as 14.0.

Take `Nc1ccc2ccccc2c1` [2-naphthylamine]: the ΔpKa pseudo in series [1] is −3.2. For the same molecule, in series [2], the “pKa* pseudo” value is 11.75 and the pKa is on record as 14.95.

As for `Nc1cc(S(=O)(=O)[O-])c2ccc3c(S(=O)(=O)[O-])cc(S(=O)(=O)[O-])c4ccc1c2c43.[Na+].[Na+].[Na+]` [APTS, 8-aminopyrene-1,3,6-trisulfonic acid trisodium salt], in series [3], the pKa was over 14 and the “bimolecular rate constant k+q,ss,OH−” value is reported as “(2.992±0.004)×10^9 M^−1 s^−1”. Further, in series [3] (steady-state photoluminescence titration, global fit of two trials), the “pK*a pseudo (Henderson-Hasselbalch fit)” value is 12.83±0.01. The “colour of stock solution after exposure” value in series [4] (10 mM stock solution exposed to −100 mA/cm^2 for 30 minutes) is given as “from bright green to brown”. Moreover, the “photoluminescence intensity during GDE operation” value in series [4] (high current densities (magnitudes >80 mA/cm^2), trisodium salt) was “degrades and slowly loses its fluorescence; also recorded: decrease in photoluminescence intensity”. Further, in series [4] (increasing concentration of dissolved inorganic carbon), the “steady-state photoluminescence spectrum versus dissolved inorganic carbon” value is recorded as “minimal change in intensity”. Moreover, in series [4] (stock solution exposed to −100 mA/cm^2 for 5 minutes), the “calibration curve after degradation versus fresh solutions” value is “nearly identical”. In addition, the “degradation, pH 7.1 versus pH 3 solution” value in series [4] (with and without light) is given as “degradation effect is more pronounced for the pH 3 solution”.

Molecule `Nc1ccc(Nc2ccc(N)cc2)cc1` [4,4′-diaminodiphenylamine] registered a ΔpKa pseudo in series [1] of under −0.7. In series [2], the “pKa* pseudo” value is given as 13.5 and the pKa was over 14.2.

As for `Nc1cccc(-c2ccccc2)c1` [3-aminobiphenyl], the ΔpKa pseudo in series [1] is under −3.0. In addition, in series [2], the “pKa* pseudo” value was 12.0 and the pKa is on record as over 15.0.

For `O=S(=O)([O-])c1cccc2cccc(Nc3ccccc3)c12.[Na+]` [sodium 8-anilinonaphthalene-1-sulfonate, 8-anilinonaphthalene-1-sulfonic acid sodium salt], in series [3], the “predicted pK*a pseudo (Equation 5)” value is 13.92±0.04 and the “bimolecular rate constant k+q,ss,OH−” value is on record as “(48±4)×10^8 M^−1 s^−1”. In series [3] (steady-state photoluminescence, traditional linearized Stern-Volmer fit, OH−(aq) quencher), the “KSV,ss,OH− (linearized Stern-Volmer)” value came out at 1.2 ± 0.1 M⁻¹.

For the molecule `Nc1ccc(C(=O)O)cn1` [6-aminonicotinic acid], the “pKa* pseudo” value in series [2] is recorded as 14.2.

Take 2-aminonaphthalene-6-sulfonate: in series [2], the “pKa* pseudo” value is reported as 11.86.

For the molecule `Nc1cccc2c1C(=O)c1cccc(N)c1C2=O` [1,5-diaminoanthraquinone], in series [1], the ΔpKa pseudo is given as under −1.7. Further, in series [2], the “pKa* pseudo” value is reported as 12.3 and the pKa is on record as over 14.

Take `COC(=O)c1ccc(N)nc1` [methyl-6-aminonicotinate]: the “pKa* pseudo” value in series [2] is 11.1.

For `COc1cccc(N)c1` [m-anisidine], in series [2], the “pKa* pseudo” value is on record as 13.7 and the pKa is recorded as over 16.

The molecule `O=C(O)c1ccc2[nH]ccc2c1` [indole-5-carboxylic acid] showed a ΔpKa pseudo in series [1] of −4.6. Moreover, in series [2], the “pKa* pseudo” value was 12.3 and the pKa is 16.9.

Turning to `Nc1cc2ccccc2c2ccccc12` [9-phenanthrylamine], in series [1], the ΔpKa pseudo was under −1.82. Also, in series [2], the “pKa* pseudo” value is on record as 12.18 and the pKa was over 14.

The values are drawn from patent US20230358677A1, “Reversible Excited-State Photoacids and Photobases as Dynamic Fluorescence Sensors of Protonic Species” (California Institute of Technology, priority 2022, published 2023).
